This note sets out measurements from PubChem BioAssay AID467 (The Scripps Research Institute Molecular Screening Center, 2006).

As a reminder, the EC50 is the concentration giving half of the maximal effect. In general, pEC50 refers to −log10 of the EC50, conventionally taken in molar units.

pEC50: −log10 of the molar value. Active and inactive are the calls of the source. How the calls were made is not given here.

The subject of the test is parental cell line counter screen, S1P1 agonist assay readout. Briefly: signal in parental cells, counter-screen for S1P1 agonist project (AID 467).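 Further: agonist potency measured against forskolin stimulation plus an EC20 level of SEW2871.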

Regarding `Nc1nonc1C(=O)NCCNCc1cc(Br)ccc1OCc1ccccc1F`, the EC50 is 28.9 µM (inactive).

Regarding `Cc1cc(N2CCN(C/C=C/c3ccccc3)CC2)n2ncnc2n1`, the EC50 was > 95.1 µM (inactive).

For `CCOC(=O)/C=C/S(=O)(=O)c1ccc(NC(C)=O)cc1`, the pEC50 was 5.40.

Consider `c1ccc(C(Cc2nc(-c3cccnc3)no2)c2ccccc2)cc1`, for which the EC50 is > 95.1 µM (inactive).

Consider `CC1=C(C(=O)OCc2ccc3c(c2)OCO3)C(c2ccc(F)cc2)NC(=O)N1` (centres undefined), for which the pEC50 is 5.64.

In the case of `O=C(C1CCCN1S(=O)(=O)c1cccc2cccnc12)N1CCN(c2ccccc2)CC1` (centres undefined), the EC50 was > 95.1 µM (inactive).

As to `Cc1nc2sccn2c1-c1csc(NCc2ccccc2)n1`, the EC50 is 20 µM (inactive).

With `CC(C)(C)OC(=O)N[C@@H](Cc1ccccc1)c1nnc(S(=O)(=O)Cc2ccccc2)o1`, the negative-log EC50 (pEC50) is 5.82.

As to `CCc1ccc2oc(-c3cc(N)cc(C)c3O)nc2c1`, the EC50 was > 95.1 µM (inactive).

As for `Cc1ccc(-c2csc(N3CCC(NS(=O)(=O)c4ccc5c(c4)OCCO5)CC3)n2)cc1`, the pEC50 is 5.24.

With `CN1/C(=C/C(=O)c2nc(S(C)(=O)=O)ncc2Cl)C(C)(C)c2ccccc21`, the pEC50 is 5.65.

As for `c1ccc(CSc2nnc(-c3cccs3)o2)cc1`, the EC50 is > 95.1 µM (inactive).

On to `O=C(CCc1nc(-c2ccccc2F)no1)Nc1ccc(Oc2ccccc2)cc1`, for which the pEC50 was 5.16.

On to `O=C(Nc1ccc(O)cc1)c1cc2n(n1)C(C(F)(F)F)CC(c1ccco1)N2` (centres undefined), for which the EC50 was > 95.1 µM (inactive).

In the case of `Cc1cc(C(=O)COC(=O)c2csc3c2CCCC3)c(C)n1C`, the EC50 was > 95.1 µM (inactive).

As to `COc1cccc(-c2csc(N3CCN(CC(=O)Nc4ccc5c(c4)OCO5)CC3)n2)c1`, the EC50 was > 30 µM (inactive).

As for `O=C(Nc1nc(-c2ccc(Cl)s2)cs1)c1ccncc1`, the EC50 was > 95.1 µM (inactive).

Take `Cc1nc2ccccc2c2oc(C(=O)NCC3COc4ccccc4O3)cc12` (centres undefined): the EC50 was 20.2 µM (inactive).

In the case of `CC(C)C(c1nnnn1Cc1ccccc1)N(Cc1ccco1)Cc1cccs1` (centres undefined), the EC50 was > 95.1 µM (inactive).

For `CCCOC(=O)c1ccc(OCC(O)Cn2c(C)nc3ccccc32)cc1` (centres undefined), the EC50 was > 95.1 µM (inactive).

For the compound `Cc1ccc2[nH]c3c(N4CCCCCC4)ncnc3c2c1`, the EC50 was 10.9 µM (inactive).

For the compound `CCCCOc1ccc(S(=O)(=O)Nc2cccnc2)cc1`, the EC50 is > 95.1 µM (inactive).

In the case of `O=C(CSc1nnc(Cc2csc(Nc3cccc(Cl)c3)n2)o1)N1CCc2ccccc21`, the EC50 is > 95.1 µM (inactive).

On to `O=S(=O)(NCc1ccncc1)c1ccc(Br)s1`, for which the EC50 is > 95.1 µM (inactive).

As to `Cc1ccc(Cl)cc1N1CCN(C(=O)COc2ccc(S(=O)(=O)NC(C)C)cc2)CC1`, the EC50 was 30 µM (inactive).

On to `CC1CCCC(C)N1C(=O)CN1CCN(c2nc(-c3ccc(F)cc3)cs2)CC1` (centres undefined), for which the EC50 is 21.7 µM (inactive).

Consider `CCn1c(-c2cccc(Cl)c2)n[nH]c1=S`, for which the EC50 was > 95.1 µM (inactive).

With `COc1ccccc1-c1cc(C(=O)Nc2ccccc2SC)no1`, the EC50 was > 95.1 µM (inactive).

With `Cc1cc(C)n2nc(SCC(=O)c3cc(C)n(-c4cc(C)on4)c3C)nc2n1`, the EC50 was 63.5 µM (inactive).

`O=C(c1ccc(F)cc1)C(CN1CCOCC1)c1ccccc1` (centres undefined): the EC50 is 11.4 µM (inactive).

`Clc1ccc(OCc2nc(-c3ccncc3)no2)c(Br)c1`: the EC50 is > 30 µM (inactive).

On to `COC(=O)c1ccc(OCC(O)Cn2nnc3ccccc32)cc1` (centres undefined), for which the EC50 was > 95.1 µM (inactive).

For the compound `Cc1ccc(C(=O)c2cncc(Br)c2)cc1`, the EC50 is > 95.1 µM (inactive).

With `CCCn1c(CNc2ccc(Br)cc2)nc2ccccc21`, the EC50 is 38.1 µM (inactive).

Take `CN(C)S(=O)(=O)c1ccc(C(=O)Nc2nc(-c3cccs3)cs2)cc1`: the EC50 was > 95.1 µM (inactive).

Consider `Cc1ccc(NC(=O)c2cc(-c3ccco3)on2)cc1C`, for which the EC50 is > 95.1 µM (inactive).

Take `Cc1cccc(OCCCCc2c(C)n[nH]c2C)c1`: the EC50 was > 30 µM (inactive).

Consider `COc1ccc(NC(=O)c2cnn3c(C(F)(F)F)cc(-c4ccco4)nc23)cc1OC`, for which the EC50 is > 95.1 µM (inactive).

As for `Cc1ccc(S(=O)(=O)Nc2cccc3ncccc23)s1`, the EC50 is > 95.1 µM (inactive).

Take `CCCc1cc2c(=O)c(-c3ccccn3)coc2cc1OC`: the EC50 was > 95.1 µM (inactive).

Turning to `COCCn1c(C)cc(C(=O)CSc2nc3ccccc3o2)c1C`, the EC50 is > 95.1 µM (inactive).

As to `CCn1c(NC(=O)c2cccc(Cn3cc(Cl)cn3)c2)nc2ccccc21`, the EC50 is > 95.1 µM (inactive).

Regarding `Cn1nc(CC(=O)Nc2ccc3c(c2)OCCO3)c2ccccc2c1=O`, the EC50 was > 30 µM (inactive).

Consider `Oc1ccc(C2NCc3ccccc3-n3cccc32)cc1Cl` (centres undefined), for which the EC50 is > 30 µM (inactive).

Turning to `CCCC(=O)N1CCN(c2ccc(NC(=O)c3cc4ccccc4o3)cc2Cl)CC1`, the EC50 is 10.8 µM (inactive).

Regarding `CCC(C)OC(=O)c1[nH]c2c(c1C)C(=O)CC(c1ccc(N(C)C)cc1)C2` (centres undefined), the EC50 is > 30 µM (inactive).

As for `CC(C)OC(=O)CSc1nc(N)c(C#N)c(-c2cccs2)c1C#N`, the EC50 is > 95.1 µM (inactive).

With `CC(=O)Nc1ccc(S(=O)(=O)N2CCN(CCCOc3cc(C)ccc3C)CC2)cc1`, the EC50 was > 30 µM (inactive).

For the compound `CN(Cc1cccs1)c1ncnc2sccc12`, the EC50 was > 30 µM (inactive).

`CCSc1nnc(NC(=O)C(Cc2ccccc2)n2cccc2)s1` (centres undefined): the EC50 was > 95.1 µM (inactive).

For the compound `COc1ccc(-c2nc(-c3cccc(C)c3)no2)cc1OC`, the EC50 was > 95.1 µM (inactive).

`COc1ccc(-n2nc3ccc(NS(C)(=O)=O)cc3n2)cc1Cl`: the EC50 was > 95.1 µM (inactive).

Regarding `Cc1cccc(N2CCN(C(=O)CSCc3c(C)noc3C)CC2)c1C`, the EC50 is > 30 µM (inactive).

For the compound `O=C(Nc1ccc(N2CCCC2)c(Cl)c1)c1ccc(Br)o1`, the EC50 was > 95.1 µM (inactive).

As for `c1ccc2c(c1)oc1c(NCc3ccc4c(c3)OCO4)ncnc12`, the EC50 was 38.9 µM (inactive).

With `CCOc1ccc(C2CC(c3cccc(OC)c3OC)n3nnnc3N2)cc1Cl` (centres undefined), the EC50 was > 95.1 µM (inactive).

For `CCOC(=O)N1CCC(NC(=O)C2CCCN(Cc3nc(-c4cccc(Cl)c4)oc3C)C2)CC1` (centres undefined), the EC50 was > 95.1 µM (inactive).

Regarding `COCC(=O)Nc1cccc(C(F)(F)F)c1`, the EC50 is > 95.1 µM (inactive).

In the case of `Cc1ccc2nc(NC(=O)CSc3nc4c(c(=O)n3C)SC(C)C4)sc2c1` (centres undefined), the EC50 was > 95.1 µM (inactive).

On to `O=C(CSCC(=O)N1CCCCC1)Nc1nc(-c2cccs2)cs1`, for which the EC50 was > 30 µM (inactive).

With `Fc1ccccc1COc1ccc(/C=N/n2cnnc2)cc1`, the EC50 is > 95.1 µM (inactive).

Take `c1ccc(N2CCN(c3ncnc4c3oc3ccccc34)CC2)cc1`: the EC50 was > 95.1 µM (inactive).

Consider `COC(=O)CS(=O)(=O)c1nnc([C@H](Cc2ccccc2)NC(=O)OC(C)(C)C)o1`, for which the pEC50 was 5.43.

`O=C(C1CCN(S(=O)(=O)c2cccc3cccnc23)CC1)N1CCN(c2ccc(Cl)cc2)CC1`: the EC50 was 38.3 µM (inactive).
